Results taken from patent US8344177B2, “Albumin binding molecules and uses thereof” (Philochem AG, priority 2006, dated 2013).
One block for each compound: values may come before it.

Experiments:
[1] = background, reference 2; cited from earlier work
[2] = MRI analysis of major blood vessels of the brain; format: in vivo, C57/B16 mice; conditions: mice, 1.2 μmol i.v.
Procedure: All animal experiments were carried out in strict adherence to the Swiss law for animal protection. MR measurements were performed on a Bruker PharmaScan 47/16 MR system (Bruker BioSpin GmbH) operating at 200 MHz using a circular cryogenic surface coil for signal transmission and reception. Mice were anesthetized with 1.4-1.5% isoflurane in air:O2 (4:1). Scout scans were performed to asses the anatomy of the animal. The shortening effect of both contrast agents DTPA-Gd and 428-D-Lys-β-Ala-DTPA-Gd on the longitudinal blood relaxation time (T1) was investigated in two C57/B16 mice. For this purpose, transverse cine 2D images were acquired using the following sequence parameters: field of view (FOV): 19×19×0.5 mm3, matrix size: 128×128, flip angle: 15°, TE/TR: 3.0/14 ms, averages: 6, repetitions: 50, temporal resolution: 10.75 s, total scan time: 8 min 57 s. The inflowing blood was saturated by exciting a 4 mm thick slice (flip angle15°) cranial to the imaging plane. Contrast agents were injected into the tail vein after a baseline of twenty repetitions. Firstly, a dose of 1.2 μmol of DTPA-Gd and secondly, after a wait time of 30 min, a dose of 1.2 μmol of 428-D-Lys-β-Ala-DTPA-Gd was administered. The time course of the MR signal was analyzed in a large vessel and normalized to the baseline value for comparison.

[3] = target: albumin (Homo sapiens, UniProt P02768); conditions: background statement; cited from earlier work
[4] = Pharmacokinetic profile of 428-ε-Lys-α-NH-FITC vs. fluorescein in mice (LC/MS/MS of serum); set-up: species or system 129SV mice; conditions: 129SV, mouse, in vivo
Procedure: The pharmacokinetic properties of conjugates of the invention are evaluated by injection of both said conjugate and the corresponding unconjugated agent (i.e. the agent that has not been modified by a compound of the invention) into mice and subsequent sampling of the conjugate and agent concentrations. Conjugate and agent concentrations are determined by Liquid Chromatography/Mass Spectrometry/Mass Spectrometry (LC-MS/MS) according to techniques known in the art.
100 μl of a 170 μM solution of fluorescein and of 428-ε-Lys-α-NH-FITC were injected into 2 pairs of immunocompetent 129SV mice.

[5] = Fluorescein angiographic analysis of the retina (scanning-laser ophthalmoscopy); format: in vivo, C57BL/6 mice; conditions: mice, 50 nmol i.v.
Procedure: To obtain functional information on the imaging properties of 428-D-Lys-FAM, a fluorescein angiographic analysis of the retina was performed. Fluorescein and 428-D-Lys-FAM were injected i.v. into mice and pictures of the eye fundus taken at different time-points. The fluorescein angiographic pictures confirmed the results of the pharmacokinetic studies.
Scanning-laser opthalmoscopy imaging was performed with a Heidelberg Retina Angiograph (HRA I, Heidelberg Engineering, Germany), a confocal scanning-laser opthalmoscope, according to previously described procedures [see reference 39]. Briefly, wild-type C57BL/6 mice were anaesthetized with ketamine (66.7 mg/kg) and xylazine (11.7 mg./kg), and their pupils were dilated with tropicamide eye drops (Mydriaticum Stulln, Pharma Stulln, Germany). The HRA features two argon wavelengths (488 nm and 514 nm) in the short wavelength range and two infrared diode lasers (795 nm and 830 nm) in the long wavelength range. The laser wavelength of 488 nm was used for fluorescein angiography, with a barrier filter at 500 nm. Four mice each received either 50 nmol of fluorescein or 428-D-Lys-FAM dissolved in 100 μl of 100 mM Tris/HCl, 105 mM NaCl, pH 8.2 injected i.v. into the tail. […] In particular, the brightness value in this study was fixed so that the brightest image (428-D-Lys-FAM at 1 minute following injection) could be recorded without overexposure. […]

[6] = Pharmacokinetic profiles of fluorescein and FAM derivatives in mouse (LC/MS/MS of plasma); format: in vivo, 129SvPas mice; conditions: for half-life: 129SvPas, mouse, in vivo, iv, 20 nmol
Procedure: In a further in vivo experiment, the pharmacokinetic properties of fluorescein, phenethylamine-FAM, 428-D-Lys-FAM, and 622-D-Lys-FAM were measured and compared. Clearance profiles for the four compounds differed distinctly (FIG. 14).
Pharmacokinetic analyses were performed under the Project Licenses 198/2005 of the Veterinaramt des Kantons Zürich (issued to Dario Neri). 129SvPas mice were injected into the tail vein with 20 nmol of fluorescein, Phenethylamine-FAM, 428-D-Lys-FAM, or 622-D-Lys-FAM dissolved in 100 μl of 100 mM Tris/HCl, 105 mM NaCl, pH 8.2 (2 mice each). 20-30 μl blood samples were taken from the vena saphena with EDTA coated capillaries (Sarstedt) 1, 5, 15, 30, 60, 120, 240, 360, 480 and 1440 minutes after injection and centrifuged. 5-10 μl of plasma were mixed with 40 μl of 0.1% trifluoroacetic acid and 200 μl of ethanol and incubated on ice for 1 hour. After one hour the samples were centrifuged to remove the precipitated proteins. The supernatant was dried under vacuum and subsequently redissolved in 50 μl of DMSO/H2O. 40 μl were injected into an LC/MS/MS system (Micromass Quattro micro API) and run on a linear gradient from in 0.1% HCOOH from 5% to 95% acetonitrile in ten minutes on a Waters XTerra MS C18 column ([…], 1×50 mm) while observing the daughter ions with m/z of 287.1 and 202.1 of the parent ion 333.1 for fluorescein, with m/z of 287.3 and 332.3 of the parent ion 480.2 for Phenethylamine-FAM, with m/z of 287.3, 377.2 and 505.2 of the parent ion 777.1 for 428-D-Lys-FAM, and with m/z of 287.3 and 505.4 of the parent ion 651.3 for 622-D-Lys-FAM. Comparing the area under the curve with a previously obtained dilution series of fluorescein and 428-D-Lys-FAM in plasma with identical sample preparation allowed the quantification of the molecules.

[7] = target: HSA (Homo sapiens, UniProt P02768); assay: Fluorescence polarisation with increasing amounts of HSA; format: binding; conditions: 100 nM compound, PBS, 1 h at 25° C., read-out: dissociation constant
Procedure: 100 nM of 428-D-Lys-FAM, 622-D-Lys-FAM and, for comparison, of fluorescein and of phenethylamine-FAM were incubated with increasing amounts of HSA in PBS for 1 h at 25° C. The fluorescence polarization was determined by excitation at 485 nm and measurement at 535 nm.

[8] = high doses, bolus injection; depending on the patient group; cited from earlier work

Chain of HSA (P02768 25-609): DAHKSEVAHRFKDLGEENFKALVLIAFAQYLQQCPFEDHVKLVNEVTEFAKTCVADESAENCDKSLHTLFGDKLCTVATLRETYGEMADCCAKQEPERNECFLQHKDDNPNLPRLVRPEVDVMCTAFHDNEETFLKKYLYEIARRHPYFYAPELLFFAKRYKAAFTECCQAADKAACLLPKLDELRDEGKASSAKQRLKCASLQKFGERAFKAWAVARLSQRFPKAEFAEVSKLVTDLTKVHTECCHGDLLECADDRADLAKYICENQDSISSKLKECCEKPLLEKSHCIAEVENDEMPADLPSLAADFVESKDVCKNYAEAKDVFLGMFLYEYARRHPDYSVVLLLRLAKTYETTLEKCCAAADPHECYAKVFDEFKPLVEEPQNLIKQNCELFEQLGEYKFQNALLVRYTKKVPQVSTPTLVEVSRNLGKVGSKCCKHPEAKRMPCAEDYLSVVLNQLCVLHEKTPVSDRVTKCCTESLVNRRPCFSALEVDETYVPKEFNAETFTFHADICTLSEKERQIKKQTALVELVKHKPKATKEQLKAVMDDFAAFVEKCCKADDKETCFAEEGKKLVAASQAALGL
Chain of albumin (P02768 25-609, species assumed): as the sequence (P02768 25-609) above

extravasation observed by MRI [2]: Rapid extravasation
SMILES: O=C([O-])CN(CCN(CC(=O)[O-])CC(=O)O)CCN(CC(=O)[O-])CC(=O)O.[Gd+3] [DTPA-Gd, Gadolinium (III)—diethyltriaminepentaacetic acid]

half-life [4]: 12.5 min | half-life ([6]; t1/2 (monophasic profile)): 4.6 min | time after injection at which no longer detectable ([6]; mice, 20 nmol into the tail vein, plasma): 30 min | Kd [7]: 76 µM
SMILES: O=C1OC2(c3ccc(O)cc3Oc3cc(O)ccc32)c2ccccc21 [fluorescein]
time after which staining of the blood vessels not detectable [5]: 20 min | patients with nausea and vomit [8]: up to 20%

The remaining lines, values behind:

SMILES: COc1cccc2c1C(=O)c1c(O)c3c(c(O)c1C2=O)C[C@@](O)(/C(CO)=N/NC(=O)CCCCCN1C(=O)C=CC1=O)C[C@@H]3O[C@H]1C[C@H](N)[C@H](O)[C@H](C)O1 [DOXO-EMCH]
maximum tolerated dose relative to unmodified doxorubicin [1]: 2-10 times

SMILES: C=CC1=C(C)/C(=C/c2[nH]c(Cc3[nH]c(/C=C4\NC(=O)C(C)=C4C=C)c(C)c3CCC(=O)O)c(CCC(=O)O)c2C)NC1=O [bilirubin]
affinity / dissociation constant to albumin (in words) [3]: nanomolar affinity

SMILES: O=C(NCCc1ccccc1)c1ccc2c(c1)C(=O)OC21c2ccc(O)cc2Oc2cc(O)ccc21 [phenethylamine-FAM]
half-life ([6]; t1/2, α): 5 min | half-life ([6]; t1/2, β): 53 min | Kd [7]: 17 µM
